Assay results as given in patent US11839212B2, “Synergistic pesticidal compositions and methods for delivery of insecticidal active ingredients” (0903608 B.C. Ltd., priority 2018, dated 2023).
Where two headings read alike, the source gives them in different places.

Legend:
Assay in all cases: Synergistic Growth Inhibition Assay (MIC and FIC index, 96-well, resazurin)
Type in all cases: cell-based
Alternaria solani = conditions: Alternaria solani, […], read-out: MIC (B)
Protocol: (§1) In some embodiments, the synergistic action between the pesticidal active ingredient, and the at least one C6-C10 (or alternatively C11 or C12) saturated or unsaturated aliphatic acid components of the pesticidal compositions according to embodiments of the present disclosure was tested using a Synergistic Growth Inhibition Assay, which is derived from and related to a checkerboard assay as is known in the art for testing of combinations of antimicrobial agents. In the Synergistic Growth Inhibition Assay used in accordance with some embodiments of the present disclosure, multiple dilutions of combinations of pesticidal active ingredient and at least one C6-C10 saturated or unsaturated aliphatic acid agents are tested in individual cells for inhibitory activity against a target pest or pathogenic organism. In one such embodiment, the combinations of pesticidal active ingredient and C6-C10 (or alternatively C11 or C12) saturated or unsaturated aliphatic acid agents may preferably be tested in decreasing concentrations. In a further such embodiment, the combinations of pesticidal active ingredient and C6-C10 (or alternatively C11 or C12) saturated or unsaturated aliphatic acid agents may be tested in increasing concentrations. These multiple combinations of the pesticidal active ingredient and at least one C6-C10 (or alternatively C11 or C12) saturated or unsaturated aliphatic acid agents may be prepared in 96-well microtiter plates. In one such embodiment, the Synergistic Growth Inhibition Assay then comprises rows which each contain progressively decreasing concentrations of the pesticidal active ingredient and one or more C6-C10 (or alternatively C11 or C12) saturated or unsaturated aliphatic acid agents to test for the MIC of the agents in combination at which growth of the target pest or pathogen is inhibited. Thus, each well of the microtiter plate is a unique combination of the two agents, at which inhibitory efficacy of the combination against the target pest or pathogen can be determined.
(§2) In one embodiment according to the present disclosure, for each row of microtiter cells in the Synergistic Growth Inhibition Assay, the FIC index is calculated from the lowest concentration of the pesticidal active ingredient and one or more C6-C10 saturated or unsaturated aliphatic acid agents necessary to inhibit growth of a target pest or pathogen. The FIC of each component is derived by dividing the concentration of the agent present in that well of the microtiter plate by the minimal inhibitory concentration (MIC) needed of that agent alone to inhibit growth of the target pest or pathogen. The FIC index is then the sum of these values for both agents in that well of the microtiter plate. […] Fractional inhibitory concentration indices may then used as measure of synergy. […] When the FIC index is equal to 1, the combination is additive.
(§3) Then, serial dilutions of these initial compositions in successive wells in the row of the microtiter plate were used to assay the pesticidal composition under the same conditions to determine the concentration of the composition combining the two agents corresponding to the microtiter well in which growth inhibition of the target pest or organism ceases.
A culture of the representative fungal pathogen, namely Fusarium oxysporum, Botrytis cinerea, or Sclerotinia sclerotiorum, for example, is grown to exponential phase in potato dextrose broth (PDB).

Botrytis cinerea = conditions: Botrytis cinerea, 48 h, Compound B alone, 48 hours incubation
Protocol: as §1, §2, §3
(§4) Similarly to as described above, Resazurin was used as an indicator of growth or inhibition of growth of Botrytis cinerea in the exemplary Synergistic Growth Inhibition Assay. In addition to the color change of the resazurin, an optical or visual examination of the microtiter well may also be made to additionally determine the presence of growth or inhibition of growth of the Botrytis cinerea.

Fusarium oxysporum = conditions: Fusarium oxysporum, 48 h, Compound B alone, incubation 48 hours, read-out: MIC (B)
Protocol: as §1, §2, §3
Resazurin dye (also known as Alamar blue dye) was used as an indicator to determine the presence of growth or inhibition of growth of Fusarium oxysporum in the wells of the 96 well microtiter plates used in the exemplary Synergistic Growth Inhibition Assay. In addition to the color change of the resazurin dye in the presence of growth of the Fusarium oxysporum, an optical or visual examination of the microtiter well may also be made to additionally determine the presence of growth or inhibition of growth of the Fusarium oxysporum.

Sclerotinia sclerotiorum = conditions: Sclerotinia sclerotiorum, […], Compound B alone, incubation 7 days, read-out: MIC (B)
Protocol: as §1, §2, §3
as §4, with “Sclerotinia sclerotiorum” for “Botrytis cinerea”, “Sclerotinia sclerotiorum.” for “Botrytis cinerea.”

[1] = Compound B alone, 7 days incubation

| SMILES | MIC (Alternaria solani; [1]) | MIC (Botrytis cinerea; Table 51, read-out: MIC (B)) | MIC (Botrytis cinerea; Table 59, read-out: MIC (B)) | other results |
| --- | --- | --- | --- | --- |
| CCCCC(O)C(=O)O (stereo not drawn) [2-Hydroxyhexanoic acid] | 2500 µg/mL | 1250 µg/mL | – | – |
| CCCCCCCC(O)CC(=O)O (stereo not drawn) [3-Hydroxydecanoic acid, 3-hydroxydecanoic acid] | – | 62.5 µg/mL | 125 µg/mL | MIC (Fusarium oxysporum; Table 10): 250 µg/mL; MIC (Fusarium oxysporum; Table 12): 250 µg/mL; MIC (Fusarium oxysporum; Table 13): 250 µg/mL; MIC (Fusarium oxysporum; Table 15B): 250 µg/mL; MIC (Botrytis cinerea; Table 56, read-out: MIC (B)): 125 µg/mL; MIC (Sclerotinia sclerotiorum; Table 16): 125 µg/mL; MIC (Sclerotinia sclerotiorum; Table 20B): 62.5 µg/mL |
| CCCCCC(O)CC(=O)O (stereo not drawn) [3-Hydroxyoctanoic acid] | 1250 µg/mL | 625 µg/mL | 625 µg/mL | MIC (Botrytis cinerea; Table 56, read-out: MIC (B)): 625 µg/mL |
| CCCC(C)CC(=O)O (stereo not drawn) [3-Methylhexanoic acid] | 250 µg/mL | 125 µg/mL | 125 µg/mL | – |
| CCCCCCC(C)CC(=O)O (stereo not drawn) [3-Methylnonanoic acid] | 62.5 µg/mL | – | – | – |
| CCC(C)CCC(=O)O (stereo not drawn) [4-Methylhexanoic acid] | 312 µg/mL | 78.1 µg/mL | 78.1 µg/mL | – |
| O=C(O)CCCCCCCCCCCO [12-Hydroxydodecanoic acid] | – | – | – | MIC (Alternaria solani): 100 µg/mL; MIC (Botrytis cinerea; read-out: MIC (B), Table 51): 100 µg/mL; MIC (Botrytis cinerea; read-out: MIC (B), Table 55): 100 µg/mL; MIC (Botrytis cinerea; read-out: MIC (B), Table 56): 100 µg/mL; MIC (Botrytis cinerea; read-out: MIC (B), Table 59): 50 µg/mL |
